{"source": "patent US6376675B2", "about": "“Muscarinic receptor agonists” (The University of Toledo, priority 1999, dated 2002)", "key": {"[1]": {"target": "T1, M1 muscarinic receptors expressed in A9 L cells (Homo sapiens, UniProt P11229)", "T1 construct": "expressed in transfected cells; host or cells: A9 L cells", "T1 sequence (P11229 1-460)": "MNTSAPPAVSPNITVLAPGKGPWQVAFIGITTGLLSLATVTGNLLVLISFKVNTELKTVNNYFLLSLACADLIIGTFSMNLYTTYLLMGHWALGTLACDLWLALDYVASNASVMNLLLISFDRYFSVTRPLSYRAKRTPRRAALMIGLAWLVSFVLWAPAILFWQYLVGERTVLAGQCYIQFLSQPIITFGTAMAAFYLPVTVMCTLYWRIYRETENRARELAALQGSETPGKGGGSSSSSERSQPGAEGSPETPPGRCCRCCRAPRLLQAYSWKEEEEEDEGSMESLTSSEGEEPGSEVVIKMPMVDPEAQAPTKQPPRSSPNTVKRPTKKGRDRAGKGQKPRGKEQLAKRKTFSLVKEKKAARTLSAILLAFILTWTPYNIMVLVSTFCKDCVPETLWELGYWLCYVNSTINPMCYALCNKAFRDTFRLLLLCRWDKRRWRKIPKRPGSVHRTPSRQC", "assay": "Phosphoinositide (PI) metabolism at M1 muscarinic receptors expressed in A9 L cells", "format": "cell-based", "conditions": "for EC50 / Phosphoinositide metabolism Smax: A9 L cells, Table 3", "from_the_text": "(§1) The compounds of Formula III incorporate hydrogen bonding elements as ester isosteres (i.e., alcohols, […], 1,2,5-thiadiazoles) at the end of an alkyl or alkyloxy linking group as shown below. The compounds lack a second tetrahydropyridine moiety."}, "[2]": {"target": "T2, M1 muscarinic receptors (Homo sapiens, UniProt P11229)", "T2 construct": "expressed in transfected cells; host or cells: A9 L cells", "T2 sequence (P11229 1-460)": "T1 sequence (P11229 1-460)", "assay": "Muscarinic receptor binding at M1 receptors", "conditions": "for affinity for muscarinic receptors: as compared to the parent compound xanomeline; for Ki: Table 3", "from_the_text": "as §1"}}, "note": "Counter-ions that a name gives are not always drawn.", "data": [{"smiles": "CN1CCC=C(c2nsnc2OCCOCCOCCOCCOc2nsnc2C2=CCCN(C)C2)C1", "note": "[(CH2CH2)4O3, 2,2′-bis-{[3-(1-methyl-1,2,5,6-tetrahydropyrid-3-yl)-1,2,5-thiadiazol-4-yloxy]ethyloxy}-diethyl ether]", "values": [{"measurement": "Smax", "setting": "[1]; PI metabolism, full dose-response curves, Table 2", "value": "250 ± 36", "unit": "%"}, {"measurement": "affinity for muscarinic receptors", "setting": "[2]", "value": "very high affinity"}]}, {"smiles": "COc1nsnc1OCCOCCOCCOCCOc1nsnc1C1=CCCN(C)C1", "note": "[CDD-0304-A, Tetra(ethyleneglycol)(4-methoxy-1,2,5-thiadiazol-3-yl)[3-(1-methyl-1,2,5,6-tetrahydropyrid-3-yl)-1,2,5-thiazdiazol-4-yl] ether hydrochloride]", "values": [{"measurement": "EC50", "setting": "[1]", "value": 64, "unit": "nM"}, {"measurement": "Phosphoinositide metabolism Smax", "setting": "[1]", "value": "600 ± 56", "unit": "%"}, {"measurement": "Ki", "setting": "[2]", "value": "38 ± 23", "unit": "nM"}]}, {"smiles": "CN1CCC=C(c2nsnc2OCCCCCCCCCCCCO)C1", "note": "(as salt: hydrochloride) [CDD-0297-A, 12-[3-(1-Methyl-1,2,5,6-tetrahydropyrid-3-yl)-1,2,5-thiadiazol-4-yloxy]-1-dodecanolhydrochloride]", "values": [{"measurement": "melting point", "value": "97 to 98", "unit": "°C"}]}, {"smiles": "CN1CCC=C(c2nsnc2OCCCCCCCCCCCCO)C1", "note": "[CDD-0297-A, 12-[3-(1-Methyl-1,2,5,6-tetrahydropyrid-3-yl)-1,2,5-thiadiazol-4-yloxy]-1-dodecanolhydrochloride]", "values": [{"measurement": "EC50", "setting": "[1]", "value": 2600, "unit": "nM"}, {"measurement": "Phosphoinositide metabolism Smax", "setting": "[1]", "value": "250 ± 28", "unit": "%"}, {"measurement": "Ki", "setting": "[2]", "value": "16 ± 3.1", "unit": "nM"}]}, {"smiles": "CC(=O)OCCOCCOCCOCCOc1nsnc1C1=CCCN(C)C1", "note": "(as salt: hydrochloride) [CDD-0303-A, Tetra(ethylene glycol) [3-(1-methyl-1,2,5,6-tetrahydropyrid-3-yl)-1,2,5-thiadiazol-4-yl] ether acetate hydrochloride]", "values": [{"measurement": "melting point", "value": "55 to 55.5", "unit": "°C"}]}, {"smiles": "CCOCCOCCOCCOCCOc1nsnc1C1=CCCN(C)C1", "note": "[CDD-0301-A, Tetra(ethylene glycol) ethyl [3-1-methyl-1,2,5,6-tetrahydropyrid-3-yl)-1,2,5-thiadiazol-4-yl] ether hydrochloride]", "values": [{"measurement": "EC50", "setting": "[1]", "value": 29000, "unit": "nM"}, {"measurement": "Phosphoinositide metabolism Smax", "setting": "[1]", "value": "420 ± 220", "unit": "%"}, {"measurement": "Ki", "setting": "[2]", "value": "570 ± 220", "unit": "nM"}]}, {"smiles": "CC(=O)OCCCCCCCCCCCCOc1nsnc1C1=CCCN(C)C1", "note": "(as salt: hydrochloride) [CDD-0299-A, 12-[3-(1-Methyl-1,2,5,6-tetrahydropyrid-3-yl)-1,2,5-thiadiazol-4-yloxy]-1-dodecyl acetate hydrochloride]", "values": [{"measurement": "melting point", "value": "85 to 86", "unit": "°C"}]}, {"smiles": "CN1CCC=C(c2nsnc2OCCOCCOCCOCCO)C1", "note": "[CDD-0300-A, Tetra(ethylene glycol) mono[3-(1-methyl-1,2,5,6-tetrahydropyrid-3-yl)-1,2,5-thiadiazol-4-yl] ether hydrochloride]", "values": [{"measurement": "EC50", "setting": "[1]", "value": 710, "unit": "nM"}, {"measurement": "Phosphoinositide metabolism Smax", "setting": "[1]", "value": "240 ± 64", "unit": "%"}, {"measurement": "Ki", "setting": "[2]", "value": "150 ± 42", "unit": "nM"}]}, {"smiles": "CC(=O)OCCOCCOCCOCCOc1nsnc1C1=CCCN(C)C1", "note": "[CDD-0303-A, Tetra(ethylene glycol) [3-(1-methyl-1,2,5,6-tetrahydropyrid-3-yl)-1,2,5-thiadiazol-4-yl] ether acetate hydrochloride]", "values": [{"measurement": "Ki", "setting": "[2]", "value": "280 ± 130", "unit": "nM"}]}, {"smiles": "CC(=O)OCCCCCCCCCCCCOc1nsnc1C1=CCCN(C)C1", "note": "[CDD-0299-A, 12-[3-(1-Methyl-1,2,5,6-tetrahydropyrid-3-yl)-1,2,5-thiadiazol-4-yloxy]-1-dodecyl acetate hydrochloride]", "values": [{"measurement": "EC50", "setting": "[1]", "value": 3400, "unit": "nM"}, {"measurement": "Phosphoinositide metabolism Smax", "setting": "[1]", "value": "280 ± 17", "unit": "%"}, {"measurement": "Ki", "setting": "[2]", "value": "16 ± 13", "unit": "nM"}]}, {"smiles": "CN1CCC=C(c2nsnc2OCCCCCCCCCCCCOc2nsnc2C2=CCCN(C)C2)C1", "note": "[(CH2)12, 1,12-bis-[3-(1-methyl-1,2,5,6-tetrahydropyrid-3-yl)-1,2,5-thiadiazol-4-yloxy]-dodecane]", "values": [{"measurement": "affinity for muscarinic receptors", "setting": "[2]", "value": "very high affinity"}]}, {"smiles": "CCOCCOCCOCCOCCOc1nsnc1C1=CCCN(C)C1", "note": "(as salt: hydrochloride) [CDD-0301-A, Tetra(ethylene glycol) ethyl [3-1-methyl-1,2,5,6-tetrahydropyrid-3-yl)-1,2,5-thiadiazol-4-yl] ether hydrochloride]", "values": [{"measurement": "melting point", "value": "64.5 to 66", "unit": "°C"}]}]}
